# According to PubChem BioAssay (NCI):
#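 Interpolation was linear, between the two tested concentrations surrounding the appropriate level; five concentrations were tested over 48 hours in 96-well plates. TGI denotes the concentration required for complete inhibition of growth.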
# Columns and labels:
# Assay in all cases: DTP human tumour cell line panel, 48 h
# NCI-H23 lung = test system: NCI-H23 lung
# OVCAR-3 ovarian = test system: OVCAR-3 ovarian
# MALME-3M melanoma = test system: MALME-3M melanoma
# HOP-62 NSCLC = test system: HOP-62 NSCLC
# SF-539 CNS = test system: SF-539 CNS
# SF-268 CNS = test system: SF-268 CNS
# COLO 205 colon = test system: COLO 205 colon
# HT29 colon = test system: HT29 colon
# SN12C renal = test system: SN12C renal
# HCT-15 colon = test system: HCT-15 colon
# UO-31 renal = test system: UO-31 renal
# MDA-MB-231 breast = test system: MDA-MB-231 breast
# IGROV1 ovarian = test system: IGROV1 ovarian
# NCI-H522 lung = test system: NCI-H522 lung
# PC-3 prostate = test system: PC-3 prostate
# SK-MEL-5 melanoma = test system: SK-MEL-5 melanoma
# MOLT-4 leukemia = test system: MOLT-4 leukemia
# A498 renal = test system: A498 renal
# SW-620 colon = test system: SW-620 colon
# MDA-N = test system: MDA-N
# CAKI-1 renal = test system: CAKI-1 renal
# EKVX NSCLC = test system: EKVX NSCLC
# HCT-116 colon = test system: HCT-116 colon
# HS 578T breast = test system: HS 578T breast
# OVCAR-5 ovarian = test system: OVCAR-5 ovarian
# HL-60(TB) leukemia = test system: HL-60(TB) leukemia
# SNB-75 CNS = test system: SNB-75 CNS
# TK-10 renal = test system: TK-10 renal
# SR leukemia = test system: SR leukemia
# LOX IMVI melanoma = test system: LOX IMVI melanoma
# SF-295 CNS = test system: SF-295 CNS
# RPMI-8226 leukemia = test system: RPMI-8226 leukemia
# CCRF-CEM leukemia = test system: CCRF-CEM leukemia
# HCC-2998 colon = test system: HCC-2998 colon
# K-562 leukemia = test system: K-562 leukemia
# KM12 colon = test system: KM12 colon
# SK-MEL-28 melanoma = test system: SK-MEL-28 melanoma
# RXF 393 renal = test system: RXF 393 renal
# A549 NSCLC = test system: A549 NSCLC
# BT-549 breast = test system: BT-549 breast
# HOP-92 NSCLC = test system: HOP-92 NSCLC
# NCI/ADR-RES ovarian = test system: NCI/ADR-RES ovarian
# UACC-257 melanoma = test system: UACC-257 melanoma
# MDA-MB-435 = test system: MDA-MB-435
# SNB-19 CNS = test system: SNB-19 CNS
# OVCAR-8 ovarian = test system: OVCAR-8 ovarian
# ACHN renal = test system: ACHN renal
# DU-145 prostate = test system: DU-145 prostate
# 786-0 renal = test system: 786-0 renal
# OVCAR-4 ovarian = test system: OVCAR-4 ovarian
# MCF7 breast = test system: MCF7 breast
# NCI-H226 lung = test system: NCI-H226 lung
structure (smiles),measurement,setting,value
C=C1C(=O)[C@]23[C@H](O)[C@H]1CC[C@H]2[C@@]12CO[C@@]3(O)C[C@@H]1C(C)(C)CC[C@@H]2O,TGI,NCI-H23 lung,> 25 µM
same,TGI,OVCAR-3 ovarian,> 25 µM
same,TGI,MALME-3M melanoma,23.4 µM
same,TGI,HOP-62 NSCLC,> 25 µM
same,TGI,SF-539 CNS,16.7 µM
same,TGI,SF-268 CNS,20.9 µM
same,TGI,COLO 205 colon,7.52 µM
same,TGI,HT29 colon,> 25 µM
same,TGI,SN12C renal,> 25 µM
same,TGI,HCT-15 colon,19.6 µM
same,TGI,UO-31 renal,> 25 µM
same,TGI,MDA-MB-231 breast,17.9 µM
same,TGI,IGROV1 ovarian,20.9 µM
same,TGI,NCI-H522 lung,8.8 µM
same,TGI,PC-3 prostate,> 25 µM
same,TGI,SK-MEL-5 melanoma,> 25 µM
same,TGI,MOLT-4 leukemia,> 25 µM
same,TGI,A498 renal,20.1 µM
same,TGI,SW-620 colon,13.8 µM
same,TGI,MDA-N,> 25 µM
same,TGI,CAKI-1 renal,> 25 µM
same,TGI,EKVX NSCLC,> 25 µM
same,TGI,HCT-116 colon,16.2 µM
same,TGI,HS 578T breast,22.2 µM
same,TGI,OVCAR-5 ovarian,> 25 µM
same,TGI,HL-60(TB) leukemia,> 25 µM
same,TGI,SNB-75 CNS,> 25 µM
same,TGI,TK-10 renal,> 25 µM
same,TGI,SR leukemia,> 25 µM
same,TGI,LOX IMVI melanoma,13.9 µM
same,TGI,SF-295 CNS,> 25 µM
same,TGI,RPMI-8226 leukemia,> 25 µM
same,TGI,CCRF-CEM leukemia,> 25 µM
same,TGI,HCC-2998 colon,23.4 µM
same,TGI,K-562 leukemia,> 25 µM
same,TGI,KM12 colon,18.4 µM
same,TGI,SK-MEL-28 melanoma,22.3 µM
same,TGI,RXF 393 renal,11.5 µM
same,TGI,A549 NSCLC,> 25 µM
same,TGI,BT-549 breast,8.33 µM
same,TGI,HOP-92 NSCLC,> 25 µM
same,TGI,NCI/ADR-RES ovarian,> 25 µM
same,TGI,UACC-257 melanoma,21.1 µM
same,TGI,MDA-MB-435,7.61 µM
same,TGI,SNB-19 CNS,> 25 µM
same,TGI,OVCAR-8 ovarian,> 25 µM
same,TGI,ACHN renal,18.9 µM
same,TGI,DU-145 prostate,> 25 µM
same,TGI,786-0 renal,> 25 µM
same,TGI,OVCAR-4 ovarian,> 25 µM
same,TGI,MCF7 breast,13.1 µM
same,TGI,NCI-H226 lung,> 25 µM
